The values below come from patent US8431704B2, “Quinoline or isoquinoline substituted P2X7 antagonists” (Janssen Pharmaceutica NV, priority 2008, dated 2013).

The structures appear in SMILES notation.

The target of the experiment is T1, P2X7 (Homo sapiens, UniProt Q99572).
T1 construct: endogenous in cells; host or cells: THP-1 human monocytic cell line
T1 sequence (Q99572 1-595): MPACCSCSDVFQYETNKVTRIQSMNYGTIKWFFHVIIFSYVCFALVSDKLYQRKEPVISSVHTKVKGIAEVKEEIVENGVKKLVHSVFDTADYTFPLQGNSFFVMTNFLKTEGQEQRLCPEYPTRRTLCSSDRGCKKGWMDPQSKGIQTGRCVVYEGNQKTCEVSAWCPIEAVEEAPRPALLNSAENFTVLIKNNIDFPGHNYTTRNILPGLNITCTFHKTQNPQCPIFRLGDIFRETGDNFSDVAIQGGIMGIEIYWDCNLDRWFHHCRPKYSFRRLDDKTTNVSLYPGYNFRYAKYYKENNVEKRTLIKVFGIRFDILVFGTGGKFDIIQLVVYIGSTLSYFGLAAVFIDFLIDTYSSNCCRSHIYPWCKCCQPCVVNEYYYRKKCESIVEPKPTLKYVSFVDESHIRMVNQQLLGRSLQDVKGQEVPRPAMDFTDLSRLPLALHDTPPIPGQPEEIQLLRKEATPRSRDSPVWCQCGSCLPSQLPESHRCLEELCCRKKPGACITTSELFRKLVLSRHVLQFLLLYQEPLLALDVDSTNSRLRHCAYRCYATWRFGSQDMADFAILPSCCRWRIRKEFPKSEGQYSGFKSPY
Briefly: THP-1 YoPro uptake assay (BzATP-stimulated Yo-Pro-1 uptake). The format is cell-based. As to conditions: Table F-10, THP-1 cells, read-out: mean pIC50 values for P2X7 antagonism (converted). As for the experimental part: The human monocytic cell line THP-1 was grown as a suspension culture in RPMI medium supplemented with 10% fetal bovine serum, penicillin/streptomycin (50 units/mL), 2 mM L-glutamine, and 20 μM 2-mercaptoethanol. Cells were maintained at a density below 0.5 million per mL. On the day of the assay, cells were washed twice with assay buffer, and then resuspended at 2 million per mL in assay buffer containing 2 μM Yo-Pro-1 (Invitrogen). The assay buffer contained (in mM): 280 sucrose, 5 KCl, 10 glucose, 10 HEPES, 5 N-methyl-D-glucamine. The cells were added at 200 k/well into poly-D-lysine-coated black-walled 96-well plates (Biocoat, Becton-Dickinson). Test compounds were dissolved in DMSO, and then added at the test concentration to each well of the 96-well plate. Concentration dependence of block was determined by exposing each well of cells in duplicate rows of a 96-well plate to a serial dilution of test compound. The concentration series usually started at 10 μM with a three-fold decrement in concentration. The final DMSO concentration seen by the cells was less than 0.5%. Cells were incubated with test compounds for 30 minutes at 37° C. A background reading was taken using a Gemini SpectraMax with 490 nm excitation and 530 nm emission. […] After incubation for 60 minutes at 37° C., an endpoint read was taken in the SpectraMax plate reader. The amount of block of the response was determined by comparing the fluorescence intensity in each well to the average of control wells on each plate. The control wells contained either a known antagonist of P2X7 (positive controls) or a concentration of DMSO equal to that in the test wells. Data were analyzed using a nonlinear regression program (Origin, OriginLab, MA). Results are reported as the −log of the IC50 (pIC50).

As to `NCC1CCN(c2ccc3c(C(=O)NCC(c4cnc(C(F)(F)F)nc4)N4CCOCC4)c(Cl)ccc3n2)CC1` (stereo not drawn) [Compound 521], the IC50 is 13.8 nM.
With `O=C(NCC(c1cnc(C(F)(F)F)nc1)N1CCC(F)(F)CC1)c1c(Cl)ccc2nc(N3CC(O)C3)ccc12` (stereo not drawn) [Compound 465], the IC50 is 7.76 nM.
In the case of `O=C(NCC(c1cnc(C(F)(F)F)nc1)N1CCOCC1)c1c(Cl)ccc2nc(N3C[C@@H]4CCCN[C@@H]4C3)ccc12` (stereo partly drawn) [Compound 564], the IC50 is 7.41 nM.
For the compound `CN[C@H]1CCN(c2ccc3c(C(=O)NCC(c4cnc(C(F)(F)F)nc4)N4CCOCC4)c(Cl)ccc3n2)C1` (stereo partly drawn) [Compound 556], the IC50 is 1.15 nM.
On to `O=C(NCC(c1cnc(C(F)(F)F)nc1)N1CCOCC1)c1c(Cl)ccc2nc(N3CC4CNC4C3)ccc12` (stereo not drawn) [Compound 565], for which the IC50 is 2.57 nM.
With `CC(C)Nc1ccc2c(C(=O)NCC(c3cnc(C(F)(F)F)nc3)N3CCOCC3)c(Cl)ccc2n1` (stereo not drawn) [Compound 496], the IC50 was 6.61 nM.
In the case of `NCCNc1ccc2c(C(=O)NCC(c3cnc(C(F)(F)F)nc3)N3CCCCC3)c(Cl)ccc2n1` (stereo not drawn) [Compound 545], the IC50 is 1.45 nM.
On to `CN(C)CCNc1ccc2c(C(=O)NCC(c3cnc(C(F)(F)F)nc3)N3CCOCC3)c(Cl)ccc2n1` (stereo not drawn) [Compound 412], for which the IC50 is 5.13 nM.
For the compound `O=C(NCC(c1cnc(C(F)(F)F)nc1)N1CCOCC1)c1c(Cl)ccc2nc(N3CCCCC3)ccc12` (stereo not drawn) [Compound 414], the IC50 was 4.17 nM.
Consider `O=C(NCC(c1cnc(C(F)(F)F)nc1)N1CCCCC1)c1c(Cl)ccc2nc(N3CCNCC3)ccc12` (stereo not drawn) [Compound 549], for which the IC50 is 3.39 nM.
As for `O=C(NCC(c1cnc(C(F)(F)F)nc1)N1CCOCC1)c1c(Cl)ccc2nc(N3CCN(C4CC4)CC3)ccc12` (stereo not drawn) [Compound 409], the IC50 is 3.39 nM.
Turning to `CNCCN(C)c1ccc2c(C(=O)NCC(c3cnc(C(F)(F)F)nc3)N3CCC(F)(F)CC3)c(Cl)ccc2n1` (stereo not drawn) [Compound 517], the IC50 was 8.51 nM.
For `CC(=O)NC1CC2CCC(C1)N2c1ccc2c(C(=O)NCC(c3cnc(C(F)(F)F)nc3)N3CCOCC3)c(Cl)ccc2n1` (stereo not drawn) [Compound 555] the value was 16.2 nM; for `CC1CN(c2ccc3c(C(=O)NCC(c4cnc(C(F)(F)F)nc4)N4CCOCC4)c(Cl)ccc3n2)CCO1` (stereo not drawn) [Compound 453], 20.9 nM.
As to `O=C(NCC(c1cnc(C(F)(F)F)nc1)N1CCOCC1)c1c(Cl)ccc2nc(NCc3cccnc3)ccc12` (stereo not drawn) [Compound 435], the IC50 is 77.6 nM.
On to `O=C(NCC(c1cnc(C(F)(F)F)nc1)N1CCC(F)(F)CC1)c1c(Cl)ccc2nc(N3CC[C@@H](O)C3)ccc12` (stereo partly drawn) [Compound 484], for which the IC50 is 7.76 nM.
For the compound `O=C(NCC(c1cnc(C(F)(F)F)nc1)N1CCOCC1)c1c(Cl)ccc2nc(NCC3CCOCC3)ccc12` (stereo not drawn) [Compound 527], the IC50 is 77.6 nM.
As for `O=C(NCC(c1cnc(C(F)(F)F)nc1)N1CCC(F)(F)CC1)c1c(Cl)ccc2nc(NCCN3CCOCC3)ccc12` (stereo not drawn) [Compound 513], the IC50 is 5.13 nM.
On to `O=C(NCC(c1cnc(C(F)(F)F)nc1)N1CCOCC1)c1c(Cl)ccc2nc(NCc3ccccc3)ccc12` (stereo not drawn) [Compound 434], for which the IC50 was 14.5 nM.
Regarding `O=C(NCC(c1cnc(C(F)(F)F)nc1)N1CCOCC1)c1c(Cl)ccc2nc(N3CCC4CNCC43)ccc12` (stereo not drawn) [Compound 559], the IC50 is 3.63 nM.
`CN(CCN)c1ccc2c(C(=O)NCC(c3cnc(C(F)(F)F)nc3)N3CCOCC3)c(Cl)ccc2n1` (stereo not drawn) [Compound 523]: the IC50 was 15.8 nM.
Take `O=C(NCC(c1cnc(C(F)(F)F)nc1)N1CCC(F)(F)CC1)c1c(Cl)ccc2nc(N3CCC(n4cn[nH]c4=O)CC3)ccc12` (stereo not drawn) [Compound 518]: the IC50 was 10.2 nM.
For the compound `O=C(NCC(c1cnc(C(F)(F)F)nc1)N1CCOCC1)c1c(Cl)ccc2nc(N3CCN(CCO)CC3)ccc12` (stereo not drawn) [Compound 455], the IC50 is 25.7 nM.
For `O=C(NCC(c1cnc(C(F)(F)F)nc1)N1CCOCC1)c1c(Cl)ccc2nc(NCC3CCCO3)ccc12` (stereo not drawn) [Compound 432] the value was 100000 nM; for `O=C(NCC(c1cnc(C(F)(F)F)nc1)N1CCOCC1)c1c(Cl)ccc2nc(N3CCC4(CC3)OCCCO4)ccc12` (stereo not drawn) [Compound 441], 24.5 nM; for `CS(=O)(=O)N[C@H]1CCN(c2ccc3c(C(=O)NCC(c4cnc(C(F)(F)F)nc4)N4CCOCC4)c(Cl)ccc3n2)C1` (stereo partly drawn) [Compound 551], 14.8 nM.
As to `O=C(NCC(c1cnc(C(F)(F)F)nc1)N1CCOCC1)c1c(Cl)ccc2nc(NCCN3CCOCC3)ccc12` (stereo not drawn) [Compound 439], the IC50 was 40.7 nM.
With `Nc1ccc2c(C(=O)NCC(c3cnc(C(F)(F)F)nc3)N3CCC(F)(F)CC3)c(Cl)ccc2n1` (stereo not drawn) [Compound 596] the figure was 3.55 nM; with `O=C(NCC(c1cnc(C(F)(F)F)nc1)N1CCOCC1)c1c(Cl)ccc2nc(N3CCC(c4n[nH]c(=O)[nH]4)CC3)ccc12` (stereo not drawn) [Compound 445], 23.4 nM.
Consider `O=C(NCC(c1cnc(C(F)(F)F)nc1)N1CCOCC1)c1c(Cl)ccc2nc(NCCCO)ccc12` (stereo not drawn) [Compound 430], for which the IC50 is 22.4 nM.
Regarding `CCN1CCN(c2ccc3c(C(=O)NCC(c4cnc(C(F)(F)F)nc4)N4CCC(F)(F)CC4)c(Cl)ccc3n2)CC1` (stereo not drawn) [Compound 428], the IC50 is 3.24 nM.
Take `O=C(NCC(c1cnc(C(F)(F)F)nc1)N1CCOCC1)c1c(Cl)ccc2nc(NCC3CC3)ccc12` (stereo not drawn) [Compound 497]: the IC50 was 6.17 nM.
Consider `CCN(CC)c1ccc2c(C(=O)NCC(c3cnc(C(F)(F)F)nc3)N3CCOCC3)c(Cl)ccc2n1` (stereo not drawn) [Compound 462], for which the IC50 is 9.12 nM.
For the compound `O=C(NCC(c1cnc(C(F)(F)F)nc1)N1CCOCC1)c1c(Cl)ccc2nc(N3CCC4(CCCCN4)C3)ccc12` (stereo not drawn) [Compound 520], the IC50 is 9.55 nM.
As to `O=C(NCC(c1cnc(C(F)(F)F)nc1)N1CCOCC1)c1c(Cl)ccc2nc(N3CCC(n4cn[nH]c4=O)CC3)ccc12` (stereo not drawn) [Compound 446], the IC50 was 34.7 nM.
Turning to `Cc1ccccc1CNc1ccc2c(C(=O)NCC(c3cnc(C(F)(F)F)nc3)N3CCOCC3)c(Cl)ccc2n1` (stereo not drawn) [Compound 437], the IC50 was 155 nM.
With `O=C(NCC(c1cnc(C(F)(F)F)nc1)N1CCC(F)(F)CC1)c1c(Cl)ccc2nc(NC3CCOCC3)ccc12` (stereo not drawn) [Compound 468], the IC50 was 22.4 nM.
Take `O=C(NCC(c1cnc(C(F)(F)F)nc1)N1CCOCC1)c1c(Cl)ccc2nc(N3CCC(C(=O)O)CC3)ccc12` (stereo not drawn) [Compound 464]: the IC50 is 117 nM.
Regarding `CC(C)Nc1ccc2c(C(=O)NCC(c3cnc(C(F)(F)F)nc3)N3CCC(F)(F)CC3)c(Cl)ccc2n1` (stereo not drawn) [Compound 491], the IC50 is 3.8 nM.
Take `O=C(NCC(c1cnc(C(F)(F)F)nc1)N1CCOCC1)c1c(Cl)ccc2nc(N3C[C@@H]4CN[C@H]3C4)ccc12` (stereo partly drawn) [Compound 460]: the IC50 was 8.91 nM.
With `CN(C)[C@H]1CCN(c2ccc3c(C(=O)NCC(c4cnc(C(F)(F)F)nc4)N4CCOCC4)c(Cl)ccc3n2)C1` (stereo partly drawn) [Compound 407] the figure was 7.41 nM; with `CCC(C)Nc1ccc2c(C(=O)NCC(c3cnc(C(F)(F)F)nc3)N3CCC(F)(F)CC3)c(Cl)ccc2n1` (stereo not drawn) [Compound 467], 6.92 nM; with `O=C(NCC(c1cnc(C(F)(F)F)nc1)N1CCOCC1)c1c(F)ccc2ncccc12` (stereo not drawn) [Compound 609], 33.1 nM.
With `O=C(NCC(c1cnc(C(F)(F)F)nc1)N1CCOCC1)c1c(Cl)ccc2nc(NCc3cc(F)cc(F)c3)ccc12` (stereo not drawn) [Compound 447] the figure was 309 nM.
With `O=C(NCC(c1cnc(C(F)(F)F)nc1)N1CCC(F)(F)CC1)c1c(Cl)ccc2nc(NCC(O)CO)ccc12` (stereo not drawn) [Compound 508] the figure was 25.7 nM.
